According to PubChem BioAssay (NCI):
Several values for one entry are separate records, joined by “and”; a condition that tells them apart may be missing. Equal entries are not always repeated.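 Test compounds were applied to cells in 96-well plates for 48 hours at 5 doses. Here, GI50 denotes the concentration required for 50% inhibition of growth. The concentration for full growth arrest is given as TGI.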

How the values were obtained:
Experiment in all cases: NCI tumour cell line growth inhibition, 48 h
[1] = tested on: A549 NSCLC
[2] = tested on: U251 CNS
[3] = tested on: NCI-H23 lung
[4] = tested on: DU-145 prostate
[5] = tested on: UACC-62 melanoma
[6] = tested on: OVCAR-4 ovarian
[7] = tested on: K-562 leukemia
[8] = tested on: HT29 colon
[9] = tested on: OVCAR-5 ovarian
[10] = tested on: RXF 393 renal

| SMILES | GI50 [1] | TGI [1] | GI50 [2] | TGI [2] | GI50 [3] | TGI [3] | GI50 [4] | TGI [4] | GI50 [5] | TGI [5] | GI50 [6] | TGI [6] | GI50 [7] | TGI [7] | GI50 [8] | TGI [8] | GI50 [9] | TGI [9] | GI50 [10] | TGI [10] |
| --- | --- | --- | --- | --- | --- | --- | --- | --- | --- | --- | --- | --- | --- | --- | --- | --- | --- | --- | --- | --- |
| CCCCC(CCCCCC(CCCC)NCc1ccc2c(c1)OCO2)NCc1ccc2c(c1)OCO2 (stereo not given) | 0.426 µM | 1.02 µM | 0.207 µM | 0.438 µM | 1.32 µM | 2.71 µM | 0.803 µM | 2.04 µM | 1.57 µM | 3.12 µM | 1.46 µM | 2.81 µM | 0.186 µM | 0.46 µM | 0.262 µM | 0.687 µM | 1.66 µM | 3.08 µM | 0.213 µM | 0.413 µM |
| O=C(O)[C@H](Cc1c[nH]c2ccccc12)N1C(=O)c2ccccc2C1=O |  | > 100 µM |  | > 100 µM |  | > 100 µM |  | > 100 µM |  | > 100 µM |  | > 100 µM | > 100 µM | > 100 µM |  | > 100 µM |  | > 100 µM |  | > 100 µM |
| COC(=O)c1ccc2c(c1)C(=O)c1c-2n(CCCCl)c(=O)c2cc([N+](=O)[O-])ccc12 |  |  | 53.1 µM | > 100 µM | 94.6 µM | > 100 µM | 37.2 µM | > 100 µM | 27.5 µM | > 100 µM | > 100 µM | > 100 µM | 59 µM | > 100 µM | 76.8 µM | > 100 µM | > 100 µM | > 100 µM | > 100 µM | > 100 µM |
| C=C1CC2(CC(c3ccccc3Cl)OC(c3ccccc3Cl)C2)OC1=O (stereo not given) |  | 21.2 µM |  | 15.6 µM |  | 9.03 µM |  | 14.4 µM |  | 4.68 µM |  | 8.56 µM |  | > 25.3 µM |  | 6.68 µM |  | 16.5 µM |  | 4.77 µM |
| CN(C)CCN1C(=O)c2cccc3cc([N+](=O)[O-])cc(c23)C1=O |  | 0.397 µM |  | 2 µM |  | 1.24 µM |  | > 100 µM |  | 1.03 µM |  | 6.37 µM |  | 26.5 µM |  | 2.8 µM |  | 5.24 µM |  | 0.923 µM |
| O=C(CCl)NCCNc1nccc(Nc2ccc(S(=O)(=O)Nc3ccccn3)cc2)n1 | 3.4 µM | 13 µM | 1.21 µM | 3.43 µM | 2.04 µM | 6.11 µM | 2.45 µM | 12.3 µM | 1.74 µM | 4.24 µM | 3.1 µM | 25.3 µM | 2.57 µM | 17 µM | 2.41 µM | 6.52 µM | 2.28 µM | 5.1 µM | 2.61 µM | 7.83 µM |
| CN(CCCCCl)P(=O)(OCCS(=O)(=O)CC(NC(=O)CCC(N)C(=O)O)C(=O)NC(C(=O)O)c1ccccc1)OCC1OC(n2ccc(N)nc2=O)C(O)C1O (stereo not given) | 4.45 µM | > 75 µM | 29.9 µM | > 75 µM | 22.6 µM | > 75 µM | 9.1 µM | > 75 µM | 35.8 µM | > 75 µM | 47.5 µM | > 75 µM | 7.36 µM | > 75 µM | 32.2 µM | > 75 µM | > 26.1 µM | > 75 µM | > 75 µM | > 75 µM |
| CC(=O)OC1CCC2(C)C(CCC3C2CC(=O)C2(C)C3CC(N3CC3)C2C(C)=O)C1 (stereo not given) |  | > 100 µM |  | 37.8 µM |  | 44.9 µM |  | > 100 µM |  | 36.5 µM |  | > 100 µM |  | 89.7 µM |  | > 100 µM |  | > 100 µM |  | 42.3 µM |
| O=C(CC1(O)C(=O)N(Cc2ccccc2)c2ccc(Cl)cc21)c1ccc(C(=O)NCC2CCC3(CC2)OOC2(CCCCC2)OO3)cc1 (stereo not given) | 0.215 µM | 0.456 µM | 0.211 µM | 0.426 µM | 0.204 µM | 0.477 µM | 0.179 µM | 0.326 µM | 6.26 µM | 77.7 µM | 2.45 µM | 11.5 µM | 1.57 µM | > 100 µM | 0.236 µM | 0.544 µM | 0.644 µM | 6.28 µM | 0.247 µM | 0.608 µM |
| O=C(Nc1ccc(Cc2ccccc2)cc1)Nc1nn(C(=O)Nc2ccc(Cc3ccccc3)cc2)c2ccccc12 | > 100 µM | > 100 µM | 70.2 µM | > 100 µM | > 100 µM | > 100 µM | 80 µM | > 100 µM | 41.6 µM | > 100 µM | > 100 µM | > 100 µM | 40.5 µM | > 100 µM | > 100 µM | > 100 µM | > 100 µM | > 100 µM | 30.4 µM | > 100 µM |
| CCCc1n(Cc2ccc3ccccc3c2)cc[n+]1Cc1ccc2ccccc2c1 | 2.67 µM | 12.1 µM | 0.765 µM | 2.11 µM | 0.521 µM | 2.51 µM | 1.49 µM | 7.25 µM | 0.647 µM | 2.02 µM | 0.398 µM | 1.61 µM | 0.414 µM | 1.75 µM | 0.513 µM | 1.89 µM | 1.43 µM | 3.32 µM | 1.13 µM | 2.49 µM |
| CC1CCN(Cc2ccc(NC(=O)c3cc4ccc5cccnc5c4[nH]3)cc2)CC1 |  |  | 2.8 µM | 10.3 µM | 14.4 µM | 37.7 µM | 8.79 µM | > 100 µM | 2.17 µM | 4.54 µM | 16.5 µM | > 100 µM | 2.53 µM | 9.07 µM | 3 µM | 14.5 µM | 11.3 µM | 35.3 µM | 2.18 µM | 6.26 µM |
| CCN(CC)CCCC(C)Nc1ccnc2cc(Cl)ccc12 (stereo not given) | 64.9 µM | > 100 µM | > 100 µM | > 100 µM and 66.1 µM |  | > 100 µM | > 100 µM | > 100 µM | 37.6 µM | > 100 µM | > 100 µM | > 100 µM | 22.6 µM | 88.2 µM and 32.4 µM | 45.7 µM | > 100 µM |  | > 100 µM | 7.95 µM | > 100 µM and 26.2 µM |
| CSc1c(C2=C(c3cn(C)c4ccccc34)C(=O)NC2=O)c2ccccc2n1C | 1.14 µM | > 25 µM | 1.23 µM | > 25 µM | 1.39 µM | > 25 µM | 1.13 µM | > 25 µM | 0.896 µM | > 25 µM | 1.2 µM | > 22.5 µM | 0.665 µM | > 25 µM | 0.814 µM | > 25 µM | 23.4 µM | > 25 µM | 0.273 µM | 1.4 µM |
| O=C1/C=C/[C@@H](O)[C@@H]2C[C@@H](O)C[C@H]2/C=C/CCC[C@H](CCc2cccc3ccccc23)O1 | 0.0411 µM | 13.2 µM | 0.0475 µM | 12.1 µM | 0.0637 µM | 1.9 µM | 0.377 µM | 14.7 µM | 0.038 µM | 12.9 µM | 0.0525 µM | 3.82 µM | 0.368 µM | 14.4 µM | 0.0347 µM | 0.373 µM | 0.103 µM | 13.9 µM | 0.0227 µM | 0.0674 µM |
| O=C1C(=C(C(F)(F)Cl)C(F)(F)Cl)C2CCC1C2 (stereo not given) |  | > 10 µM |  | > 10 µM |  | 4.63 µM |  | > 10 µM |  | 4.4 µM |  | 8.31 µM |  | > 10 µM |  | 5.57 µM |  | > 10 µM |  | 3.07 µM |
| Cc1ccc2oc(=O)cc(/C(=C3/C=CC=N3)c3ccc[nH]3)c2c1 | 0.59 µM | 10.9 µM | 0.319 µM | 1.57 µM | 0.484 µM | 3.66 µM | 0.361 µM | 10.8 µM | 0.373 µM | 1.98 µM | 1.58 µM | 9.56 µM |  |  | 0.349 µM | 1.42 µM | 0.901 µM | 12.7 µM | 0.256 µM | 0.748 µM |
| NCCc1ccc(S(=O)(=O)F)cc1 | > 100 µM | > 100 µM | 95.1 µM | > 100 µM | > 100 µM | > 100 µM | 37 µM | > 100 µM |  |  | > 100 µM | > 100 µM | 80.7 µM | > 100 µM | > 100 µM | > 100 µM | 43.4 µM | > 100 µM | 37.8 µM | 98.2 µM |
| CCCCCCCCCCCCCCCC1=NCCN1 | 2.06 µM | 4 µM | 1.87 µM | 3.52 µM | 2.04 µM | 4.78 µM | 1.9 µM | 3.57 µM | 2.3 µM | 4.94 µM | 2.38 µM | 6.89 µM |  |  | 1.87 µM | 4.45 µM | 2.26 µM | 5.53 µM | 1.75 µM | 3.38 µM |
| N#Cc1c(NCc2ccccc2)nc(NCc2ccccc2)c(C#N)c1-c1ccc(O)cc1 | 34.1 µM | > 100 µM | 19.2 µM | 54.5 µM | 45.3 µM | > 100 µM | 32.4 µM | > 100 µM | 21.5 µM | > 100 µM | 27.7 µM | > 100 µM |  |  | 60.2 µM | > 100 µM | 60.3 µM | > 100 µM | 39.1 µM | > 100 µM |
| O=C1CSC(=S)N1c1ccco1 |  | > 100 µM |  | > 100 µM |  | > 100 µM |  | > 100 µM |  |  |  | > 100 µM |  | > 100 µM |  | > 100 µM |  | > 100 µM |  | > 100 µM |
| CC(=O)Nc1cc2cc(N)ccc2oc1=O |  | > 100 µM |  | > 100 µM |  | > 100 µM |  | > 100 µM |  |  |  | > 100 µM |  | > 100 µM |  | > 100 µM |  | > 100 µM |  | > 100 µM |
